Assay results taken from patent publication US11685741B2, “Fluorescent probes” (University of Massachusetts, priority 2017, dated 2023).

Assays:
zebrafish = experiment: Zebrafish confocal imaging of free Fe2+; type: in vivo
Description: Embryos were collected from natural spawning and raised up in embryo medium (M. Santra, et al. Chem. Commun., 2009, 10, 2115). Zebrafish mutant strain Casper was utilized because it lacks pigment, allowing better visualization (J. A. Lister, et al., Development, 1999, 126, 3757). Zebrafish embryos at 6 days post fertilization (dpf) were incubated with 10 μM NIRh-Fret in embryo media for 1 h at 28° C. In addition, iron (II) loaded zebrafish (100 μM Fe (NH4)2(SO4)2 for 8 hours incubation) were incubated with 10 μM NIRh-Fret in embryo media for 1 h at 28° C. The treated zebrafish were imaged by a LSM710 confocal microscope.
The ability of NIRh-Fret to detect free Fe^2+ in zebrafish was further investigated using confocal microscopy. […] For Fe^2+ replete conditions, live zebrafish were incubated with 100 μM of ferrous ammonium sulfate (Fe (NH4)2(SO4)2) at 28° C. for 8 h followed by washing with E3 medium to remove excess Fe^2+ and then 10 μM of NIRh-Fret was added to the culture media and was incubated at 28° C. for 30 min.
In addition, the red-colored region was observed as a well-localized red round spot, being the intestine region of the 6-days-old zebrafish.

[1] = system: Bovine aortic endothelial cells (BAEC); experiment: Confocal imaging of Fe2+ in BAEC cells; type: cell-based; conditions: for fluorescence of cells with sensor only / fluorescence of cells treated with Fe^2+ then Bpy: 10 μM sensor; for fluorescence of cells treated with Fe^2+ then Bpy: 100 μM Fe^2+ overnight, versus Fe^2+ supplement; for fluorescence of cells treated with Fe^2+ then Bpy / fluorescence of Bpy-treated cells: 1 mM Bpy; for fluorescence of Fe^2+-treated cells versus unsupplemented: 100 μM ferrous ammonium sulfate overnight, then 10 μM sensor 30 min; for fluorescence of Bpy-treated cells: versus control cells
Description: Bovine aortic endothelial cells BAEC cells, at an approximately density of 1.3 million/ml in complete EBM medium, were incubated with 100 μM ferrous ammonium sulfate (FAS, Fe (NH4)2(SO4)2 from a 10 mM stock solution) for overnight at 37° C. in a humid atmosphere of 5% CO2 and then the cells were washed with fresh EBM medium to remove excess Fe^2+. Then cells were incubated with Rh101D (10 μM, from 500 μM stock solution in DMF) at 37° C. for 30 min and then cells were washed with EBM media and then imaged. In addition, some cells were treated firstly with 100 μM Fe^2+ overnight and then the cells were washed with fresh EBM medium. For chelation experiments, Fe^2+-loaded cells or untreated cells were incubated with 1 mM 2,2′-bipyridyl (Bpy) at 37° C. for 30 min, then sensor was added followed by washing with the media, and then imaging was done. Controls were imaged without incubation with Fe^2+ or 2,2′-bipyridyl. HCT-116, a human colon adenocarcinoma cell line were used for concentration determination of Fe^2+ with the help of the ratiometric sensor Rh101D. HCT-116 were maintained in McCoy's 5A medium supplemented with 10% fetal bouvine serum and 5% antibiotic antimycotic in a 5% CO2 atmosphere at 37° C. Cultures were divided 1:2 every 48 h to an approximate cell density of 1.21 million cells/ml and used for experiments after 24 h. All experiments were performed with cells in the logarithmic growth phase.
A Zeiss LSM 710 laser-scanning confocal microscope system was used for cell imaging experiments in collaboration with a person in the lab. 40× oil-immersion objective lens were used to perform all the experiments. For imaging with the Rh101D sensor, excitation wavelength of the laser was 543 nm and emissions were collected over the range 545-625 nm. For images with MitoTracker Green FM, LysoTracker Deep Red, excitation wavelengths recommended by the manufacturer were 488 nm for MitoTracker, 633 nm for LysoTracker. Emissions were integrated at 492-535 nm (MitoTracker), 650-800 nm (LysoTracker), respectively.
The ability of Rh101D to detect Fe^2+ in live bovine aortic endothelial cells (BAEC) was investigated by confocal microscopy. […] For Fe^2+ repleting conditions, live BAEC cells were incubated with 100 μM of ferrous ammonium sulfate (Fe (NH4)2(SO4)2) at 37° C. for overnight followed by washing with EBM medium to remove excess Fe^2+ and then 10 μM of Rh101D was added to the culture media and was incubated at 37° C. for 30 min. […] For Fe^2+-depleting conditions, 2,2-bipyridyl (Bpy) which is known to be a selective Fe^2+-chelator was used to chelate Fe^2+[33]. […] This fluorescent intensity is almost the same as that of cells without Fe^2+ or Bpy treatment.
To explore this, the distribution of exchangeable Fe^2+ pools in live BAEC cells were further investigated using Rh101D, together with colocalization experiments using other dyes—MitoTracker Green FM (a green fluorescent dye which localizes to mitochondria in live cells regardless of mitochondrial membrane potential) and LysoTracker Deep Red (a fluorescent dye that stains acidic compartments such as endosomes and lysosomes in live cells). BAEC cells (without Fe^2+ treatment) were treated with Rh101D, MitoTracker Green FM, and […].
Bovine aortic endothelial cells (BAEC) were grown at 37° C. in a humid atmosphere of 5% CO2 atmosphere in Endothelial Basal Medium (EBM, Lonza) supplemented with 5% fetal bovine serum (FBS, ATCC). Cultures were divided into 1:2 every 48 h to an approximate cell density of 1.3 million cells/ml and used for experiments after 24 h.
A Zeiss LSM 710 laser-scanning confocal microscope system was used for cell imaging experiments in collaboration with a person in the lab. 40× oil-immersion objective lens were used to perform all the experiments. For imaging with the NIRh-Fret sensor, excitation wavelength of the laser was 633 nm and emissions were collected over the range 650-850 nm. […]

| Compound | fluorescence of Fe^2+-treated zebrafish versus unsupplemented (zebrafish; 100 μM ferrous ammonium sulfate 8 h, then 10 μM NIRh-Fret 30 min) | fluorescence of zebrafish with sensor only (zebrafish; 6-days-old zebrafish, 10 μM NIRh-Fret) | fluorescence of cells with sensor only [1] | fluorescence of cells treated with Fe^2+ then Bpy [1] | fluorescence of Fe^2+-treated cells versus unsupplemented [1] | fluorescence of Bpy-treated cells [1] |
| --- | --- | --- | --- | --- | --- | --- |
| CCN(CC)c1ccc2c(c1)OC1=C(CCC/C1=C\C=C1\N(C)c3ccccc3C1(C)C)C21c2ccccc2C(=O)N1/N=C\C=C\c1ccc(N(C)C)cc1 (stereo not shown) [NIRh-Fret, (E)-6′-(diethylamino)-2-(((1Z,2E)-3-(4-(dimethylamino)phenyl)allylidene)amino)-4′-(2-((E)-1,3,3-trimethylindolin-2-ylidene)ethylidene)-1′,2′,3′,4′-tetrahydrospiro[isoindoline-1,9′-xanthen]-3-one] | significant increase in fluorescent signals | weak fluorescence | weak fluorescence | marked decrease in fluorescent intensity | significant increase in fluorescent signals | decrease in fluorescence intensity |
| CN(C)c1ccc(/C=C/C=N/N2C(=O)c3ccccc3C23c2cc4c5c(c2Oc2c3cc3c6c2CCCN6CCC3)CCCN5CCC4)cc1 [Rh101D] |  |  | weak fluorescence | marked decrease in fluorescent intensity | significant increase in fluorescent signals | decrease in fluorescence signal |
